Source: patent publication US6579896B2, “Method for treating allergies using substituted pyrazoles” (Ortho-McNeil Pharmaceutical, Inc., priority 2000, dated 2003)

Experiments:
[1] = test system: PBMC from HDM-allergic donors (allergen-specific CD4 T cells); test: Ex vivo human T cell-proliferation assay, house dust mite extracts (Der p, Der f); format: cell-based; details: PBMC of four HDM-allergic donors, Der p or Der f extract, 7 days culture, FIG. 1B
[2] = test system: invariant chain (Ii) degradation by cathepsin S in PBMC; test: Monitoring cathepsin S inhibition in human blood: p10Ii fragment accumulation (Western blot); format: cell-based; details: PBMC from human blood, incubation for 24 h, SDS-PAGE / Western blot
[3] = test system: PBMC from ragweed-allergic donors (allergen-specific CD4 T cells); test: Ex vivo human T cell-proliferation assay, ragweed extracts (short and giant); format: cell-based; details: PBMC of two ragweed-allergic donors, short and giant ragweed extract, 7 days culture, FIG. 2B
[4] = test system: PBMC from allergic donors (T cells, ConA pan-T cell mitogen); test: T cell proliferative responses induced by ConA; format: cell-based, human; details: specificity control

CC(C)C[C@H](NC(=O)N1CCOCC1)C(=O)N[C@H](/C=C/S(=O)(=O)c1ccccc1)CCc1ccccc1 [LHVS, 4-morpholinecarboxamide, N-[(1S)-3-methyl-1-[[[(1S,2E)-1-(2-phenylethyl)-3-(phenylsulfonyl)-2-propenyl]amino]carbonyl]butyl]-] was tested, and the “T cell proliferation (3H-thymidine incorporation) induced by HDM extracts” value [1] was “strongly inhibited”, the “p10Ii fragment of invariant chain (block in degradation of Ii)” value [2] was “the p10Ii fragment was seen” and the “T cell proliferation (3H-thymidine incorporation) induced by ragweed extracts” value [3] was “strongly inhibited”. The “T cell proliferative responses induced by ConA” value ([4]; HDM-allergic donors) was “not affected” and the “T cell proliferative responses induced by ConA” value ([4]; ragweed-allergic donors) was “not affected”.
